Patent publication US8222270B2 (Medicis Pharmaceutical Corporation, priority 2008, dated 2012)
Several values for one entry are separate records, joined by “and”; a condition that tells them apart may be missing. Identical values can stand only once.

Assays:
[1] = Topical pharmacokinetics, 5 mg/kg three times per week for 4 weeks; details: rat, in vivo
[2] = Repeat dose oral toxicity, 6 months; assay type: in vivo, rats; details: dosed daily for 6 months
Protocol: (§1) The adverse effects observed for the high doses (10-30 mg/kg) in repeat dose oral toxicity studies in rats and monkeys could be related to exaggerated pharmacological effects of excessive cytokines induction and lymphoid stimulation: reduced body weight gains, anaemia, serum protein changes and death. […] An oral no-adverse-effect level of 3 mg/kg/day was determined in both rats and monkeys dosed daily for 6 months.

[3] = Protocol: A combined fertility and peri- and post-natal development study was conducted in rats.
[4] = Oral (gavage) carcinogenicity study, 24 months
[5] = system: interleukin-1 antagonist, interferon-α, 2′5′-oligoadenylate synthetase; test: Biomarker response in 58 patients with AK treated 3 times per week for 16 weeks; assay type: in vivo, human; details: 16 weeks of dosing
[6] = Repeat dose dermal toxicity studies; assay type: in vivo, rats
Protocol: A dose-related decrease in body weight of male rats was also observed. No systemic toxicity was found at doses up to 5 mg/kg three days per week for 4 weeks or at doses up to 2.5 mg/kg three days per week for 16 weeks.

[7] = Repeat dose oral toxicity, 6 months; assay type: in vivo, monkeys; details: dosed daily for 6 months
Protocol: as §1

[8] = Skin, eye and vaginal irritation studies; assay type: in vivo, rabbits
From the text: The more severe dermal irritation seen in the rat is not predictive of human response.

[9] = Acute dermal toxicity under occlusion
[10] = Oral embryofetal development study; assay type: in vivo, rats
Protocol: Systemic embryofetal development studies were conducted in rats and rabbits.

[11] = design: species or system mice; details: CD-1, mouse, in vivo, 2 years
[12] = system: human monocytes/macrophages and keratinocytes; test: In vitro cytokine induction; assay type: cell-based
From the text: The panel of cytokines induced varied with the cell's tissue origin.

[13] = Intravenous embryofetal development study; assay type: in vivo, rabbits
[14] = Stability of calibration standards in spent receiver fluid; assay type: physicochemical; details: vs T = 0

Compound: CC(C)Cn1cnc2c(N)nc3ccccc3c21 [imiquimod, 1-(2-methylpropyl)-1H-imidazo[4,5-c]quinolin-4-amine]
- Imiquimod in serum [1]: not quantifiable
- Oral no-adverse-effect level [2]: 3 mg/kg/day
- Exposure multiple at dose without teratogenicity ([3]; 3 mg/kg/day): 27 ×MRHD based on AUC comparisons
- Dose up to which no impairment of reproduction was demonstrated ([3]; daily oral, throughout mating, gestation, parturition and lactation): 8 times recommended human dose on a mg/m^2 basis
- Dose at which bent limb bones were noted in the F1 fetuses ([3]; in the absence of maternal toxicity): 6 mg/kg/day
- Dose with no treatment related effects on teratogenicity ([3]; oral): 3 mg/kg/day
- Exposure multiple, male and female rats ([4]; 3 mg/kg 7×/week): 29 ×MRHD
- Exposure multiple, male rats ([4]; 4 mg/kg 2×/week): 45 ×MRHD
- Exposure multiple, female rats ([4]; 6 mg/kg 2×/week): 57 ×MRHD based on AUC comparisons
- Highest dose tested without treatment related tumors, female rats ([4]; 2×/week, 24 months): 6 mg/kg
- Highest dose tested without treatment related tumors, male rats ([4]; 2×/week, 24 months): 4 mg/kg
- Highest dose tested without treatment related tumors, male and female rats ([4]; 7×/week, 24 months): 3 mg/kg
- Carcinogenic effect, male and female rats ([4]; two-year bioassay, up to 3 mg/kg orally per day): no evidence of a carcinogenic effect
- 2′5′-oligoadenylate synthetase, median concentration after multiple dosing vs single dose [5]: approximately 3 fold
- Interferon-α, median concentration after multiple dosing vs single dose [5]: ≤ 3 fold
- Interleukin-1 antagonist, median concentration after multiple dosing vs single dose [5]: < 2 fold
- Dose up to which no systemic toxicity was found ([6]; three days per week for 4 weeks): 5 mg/kg
- Dose up to which no systemic toxicity was found ([6]; three days per week for 16 weeks): 2.5 mg/kg
- Oral no-adverse-effect level [7]: 3 mg/kg/day
- Vaginal tract irritation ([8]; rat or rabbit, every other day for 10 days at 10 and 50 mg/dose): not irritating
- Eye irritation ([8]; unformulated at 100 mg/eye or formulated up to 5 mg/eye): mild or no eye irritation
- Skin irritation ([8]; unformulated at 500 mg or formulated up to 250 mg per site): non-irritating
- Dermal lethal dose ([9]; rabbit, in vivo): greater than 5000 mg/kg
- LD50 ([9]; rabbit, in vivo, topical, 5000 mg/kg): > 5000 mg/kg
- Acute dermal toxicity ([9]; unformulated, under occlusion, 5000 mg/kg): did not reveal any toxic effects
- Exposure multiple at dose with fetal effects ([10]; female, rat, in vivo): 427 ×MRHD based on AUC comparisons
- Exposure multiple at no-effect dose ([10]; female, rat, in vivo): 83 ×MRBD based on AUC comparisons
- Teratogenicity ([10]; female, rat, in vivo): not teratogenic
- High maternally toxic dose with reduced pup weights and delayed ossification ([10]; female, rat, in vivo, 20 mg/kg/day): 28 times human dose on a mg/m^2 basis
- Dose at which fetal effects were noted (in the presence of maternal toxicity) ([10]; oral, gestational days 6-15): 20 mg/kg/day
- Dose with no treatment related effects on embryofetal toxicity or teratogenicity ([10]; oral, gestational days 6-15): 5 mg/kg/day
- Carcinogenic effect, female mice ([11]; female): no evidence of a carcinogenic effect
- Liver tumours, male mice at the highest dose vs unexposed controls ([11]; male): Liver tumours were increased
- Release of interferon alpha (IFN-α) and other cytokines [12]: induces the release
- Teratogenicity ([13]; female, rabbit, in vivo): not teratogenic
- Dose with no treatment related effects on embryofetal toxicity or teratogenicity ([13]; intravenous, gestational days 6-18): 2 mg/kg/day and 1 mg/kg/day
- 48 h % recovered in Spent receiver fluid ([14]; Standard 5.275 μg/ml, Epidermal sheet + placebo, 37° C.): 86.828%
- 48 h % recovered in Spent receiver fluid ([14]; Standard 5.275 μg/ml, Epidermal sheet + placebo, Fridge): 88.881%
- 48 h % recovered in Spent receiver fluid ([14]; Standard 5.275 μg/ml, Epidermal sheet + placebo, RT): 86.540%
- 48 h % recovered in Spent receiver fluid ([14]; Standard 5.275 μg/ml, Epidermal sheet, 37° C.): 85.995%
- 48 h % recovered in Spent receiver fluid ([14]; Standard 5.275 μg/ml, Epidermal sheet, Fridge): 88.938%
- 48 h % recovered in Spent receiver fluid ([14]; Standard 5.275 μg/ml, Epidermal sheet, RT): 91.447%
- 48 h % recovered in Spent receiver fluid ([14]; Standard 5.275 μg/ml, Full thickness + placebo, 37° C.): 86.134%
- 48 h % recovered in Spent receiver fluid ([14]; Standard 5.275 μg/ml, Full thickness + placebo, Fridge): 90.260%
- 48 h % recovered in Spent receiver fluid ([14]; Standard 5.275 μg/ml, Full thickness + placebo, RT): 87.973%
- 48 h % recovered in Spent receiver fluid ([14]; Standard 5.275 μg/ml, Full thickness, 37° C.): 90.611%
- 48 h % recovered in Spent receiver fluid ([14]; Standard 5.275 μg/ml, Full thickness, Fridge): 94.586%
- 48 h % recovered in Spent receiver fluid ([14]; Standard 5.275 μg/ml, Full thickness, RT): 95.232%
- 48 h % recovered in Spent receiver fluid ([14]; Standard 42.2 μg/ml, Epidermal sheet + placebo, 37° C.): 95.095%
- 48 h % recovered in Spent receiver fluid ([14]; Standard 42.2 μg/ml, Epidermal sheet + placebo, Fridge): 93.077%
- 48 h % recovered in Spent receiver fluid ([14]; Standard 42.2 μg/ml, Epidermal sheet + placebo, RT): 92.904%
- 48 h % recovered in Spent receiver fluid ([14]; Standard 42.2 μg/ml, Epidermal sheet, 37° C.): 89.641%
- 48 h % recovered in Spent receiver fluid ([14]; Standard 42.2 μg/ml, Epidermal sheet, Fridge): 85.716%
- 48 h % recovered in Spent receiver fluid ([14]; Standard 42.2 μg/ml, Epidermal sheet, RT): 86.340%
- 48 h % recovered in Spent receiver fluid ([14]; Standard 42.2 μg/ml, Full thickness + placebo, 37° C.): 86.439%
- 48 h % recovered in Spent receiver fluid ([14]; Standard 42.2 μg/ml, Full thickness + placebo, Fridge): 83.976%
- 48 h % recovered in Spent receiver fluid ([14]; Standard 42.2 μg/ml, Full thickness + placebo, RT): 84.144%
